Measurements published in patent US20070043047A1, “Fungicidal mixtures for controlling rice pathogens” (BASF AKTIENGESELLSCHAFT, priority 2003, published 2007).

System: Corticium sasakii (syn. Rhizoctonia solani)
Test: Activity against sheath blight on rice caused by Corticium sasakii (protective spray, pot test)
Format: in vivo
Conditions: for Efficacy in % of the untreated control: individual active compound, rice, evaluated after 11 days, untreated control 90% infection
Method: The active compounds, separately or jointly, were prepared as a stock solution with 0.25% by weight of active compound in acetone or DMSO. 1% by weight of the emulsifier Uniperol® EL (wetting agent having emulsifying and dispersing action based on ethoxylated alkylphenols) was added to this solution, and the solution was diluted with water to the desired concentration.
Use example—Activity against sheath blight on rice caused by Corticium sasakii (syn. Rhizoctonia solani) Pots of rice plants of the cultivar “Tai-Nong 67” were sprayed to runoff point with an aqueous suspension having the concentration of active compound stated below. The next day, oat grains infected with Corticium sasakii were placed into the pots (in each case 5 grains per pot). The plants were then placed in a chamber at 26° C. and maximum atmospheric humidity. After 11 days, the sheath blight on the untreated but infected control plants had developed to such an extent that the infection could be determined visually in %.
Evaluation is carried out by determining the infected plants in percent. These percentages were converted into efficacies.
The efficacy (E) is calculated as follows using Abbot's formula: E=(1−α/β)·100 α corresponds to the fungicidal infection of the treated plants in % and β corresponds to the fungicidal infection of the untreated (control) plants in % An efficacy of 0 means that the infection level of the treated plants corresponds to that of the untreated control plants; an efficacy of 100 means that the treated plants are not infected.
The expected efficacies of the mixtures of active compounds are determined using Colby's formula [R. S. Colby, Weeds 15, 20-22 (1967)] and compared with the observed efficacies.
Colby's formula: E=x+y−x·y/100
E expected efficacy, expressed in % of the untreated control, when using the mixture of the active compounds A and B at the concentrations a and b x efficacy, expressed in % of the untreated control, when using active compound A at the concentration a y efficacy, expressed in % of the untreated control, when using active compound B at the concentration b

SMILES | Efficacy in % of the untreated control (1 ppm in the spray liquor) [%] | Efficacy in % of the untreated control (4 ppm in the spray liquor) [%] | Effectiveness against sheath blight, comparison in words (summary of the test results)
CC1CCN(c2c(-c3c(F)cc(F)cc3F)c(Cl)nc3ncnn23)CC1 [I, 5-chloro-7-(4-methylpiperidin-1-yl)-6-(2,4,6-trifluorophenyl)-[1,2,4]tri-azolo[1,5-a]pyrimidine] | 33 | 67 | –
CC(Cc1ccc(C(C)(C)C)cc1)CN1C[C@@H](C)O[C@@H](C)C1 (stereo partly drawn) [II, 4-[3-(4-tert-butylphenyl)-2-methylpropyl]-2,6-dimethylmorpholine] | 0 | 0 | –
CC1CCN(c2c(-c3c(F)cccc3Cl)c(Cl)nc3ncnn23)CC1 (single isomer, unassigned) [B] | 0 | 72 | activity comparable to that of compound I
CC1CCN(c2c(-c3c(F)cccc3Cl)c(Cl)nc3ncnn23)CC1 (single isomer, unassigned) [A] | 0 | 0 | –
